In ChEMBL document CHEMBL1201862, “PubChem BioAssay data set” (2004):
Calls of active or inactive are those of the source.

Columns and labels:
[1] = biological target: T1, Leucine aminopeptidase (Plasmodium falciparum 3D7, UniProt Q8IL11); assay: P. falciparum M17LAP inhibitors, primary screen, biochemical, fluorogenic H-Leu-NHMec substrate, 1536-well (AID 1619); type: functional
T1 sequence (Q8IL11 whole entry): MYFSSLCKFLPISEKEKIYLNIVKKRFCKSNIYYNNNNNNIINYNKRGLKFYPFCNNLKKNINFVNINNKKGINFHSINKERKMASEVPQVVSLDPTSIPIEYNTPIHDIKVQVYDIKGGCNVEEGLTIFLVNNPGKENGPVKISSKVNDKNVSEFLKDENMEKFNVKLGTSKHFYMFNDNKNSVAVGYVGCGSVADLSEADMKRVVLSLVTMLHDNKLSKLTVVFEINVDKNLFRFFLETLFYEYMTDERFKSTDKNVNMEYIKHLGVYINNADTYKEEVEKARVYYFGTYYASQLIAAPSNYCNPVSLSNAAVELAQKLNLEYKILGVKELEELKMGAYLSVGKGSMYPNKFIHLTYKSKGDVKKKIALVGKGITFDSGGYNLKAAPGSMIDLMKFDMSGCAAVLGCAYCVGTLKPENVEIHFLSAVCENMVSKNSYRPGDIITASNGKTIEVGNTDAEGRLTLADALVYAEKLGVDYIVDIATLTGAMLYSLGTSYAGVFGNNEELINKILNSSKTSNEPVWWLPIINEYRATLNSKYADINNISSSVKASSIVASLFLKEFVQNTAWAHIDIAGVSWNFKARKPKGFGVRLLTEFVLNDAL

[2] = biological target: T2, Aspartyl aminopeptidase (Plasmodium falciparum 3D7, UniProt Q8I2J3); assay: Counterscreen for inhibitors of M1 and M17 aminopeptidases: QFRET-based biochemical high throughput dose response assay for inhibitors of the Plasmodium falciparum M18 Aspartyl Aminopeptidase (PFM18AAP). [Related PubChem assays: 1619 (Screening assay (M17LAP inhibitors).), 1445 (Screening assay (M1AAP inhibitors).)]
T2 sequence (Q8I2J3 whole entry): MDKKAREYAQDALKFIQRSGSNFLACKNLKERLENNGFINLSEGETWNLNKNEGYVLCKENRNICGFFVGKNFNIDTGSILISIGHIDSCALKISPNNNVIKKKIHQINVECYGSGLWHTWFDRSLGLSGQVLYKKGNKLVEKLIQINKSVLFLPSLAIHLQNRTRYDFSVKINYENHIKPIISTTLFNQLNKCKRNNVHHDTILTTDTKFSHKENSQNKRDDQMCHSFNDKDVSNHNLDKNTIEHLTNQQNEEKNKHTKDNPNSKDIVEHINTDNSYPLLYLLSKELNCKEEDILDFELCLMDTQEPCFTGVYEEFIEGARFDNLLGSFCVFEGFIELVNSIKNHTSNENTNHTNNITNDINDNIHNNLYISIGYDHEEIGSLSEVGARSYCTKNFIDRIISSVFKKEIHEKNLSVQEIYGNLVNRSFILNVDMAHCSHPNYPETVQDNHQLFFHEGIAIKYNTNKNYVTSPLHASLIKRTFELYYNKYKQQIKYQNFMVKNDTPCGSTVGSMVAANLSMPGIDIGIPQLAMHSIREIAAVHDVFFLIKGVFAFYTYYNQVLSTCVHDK

[3] = biological target: Procathepsin L (Homo sapiens, UniProt P07711); assay: cathepsin L inhibitors, dose response, counter-screen for M1/M17 aminopeptidase inhibitor project, biochemical, QFRET, 1536-well (AID 2214)
[4] = M. tuberculosis H37Rv growth inhibitors, H37Rv strain (AID 1626); type: functional
[5] = inhibitors of firefly luciferase expression or activity, dose response, H4 neuroglioma cells, luminescence (AID 1990); type: functional, cell-based
[6] = tested on: HeLa; assay: Cytotoxicity counterscreen assay for transcriptional activators of heat shock protein 70 (Hsp70). [Related pubchem assays: 1203, 1252 ]; type: functional; details: Homo sapiens;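 further: cells exposed to compound for 16 hours before readout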
[7] = tested on: BJ; assay: cytotoxicity toward BJ-TERT fibroblasts, dose response, cell-based, RAS-independent, luminescence (AID 1933); type: functional; details: Homo sapiens
[8] = Luminescence Cell-Based Dose Response HTS to Identify Inhibitors of 5'UTR Stem-Loop Driven Prion Protein mRNA Translation in H4 Neuroglioblastoma Cells. [Related pubchem assays: 1827 (Project Summary), 1813 (Primary HTS)]; type: functional
[9] = inhibitors of SNCA 5'UTR-driven reporter translation, confirmation, H4 neuroglioma cells, luminescence (AID 1988); type: functional, cell-based
[10] = tested on: BJ; assay: cells; type: functional, cell-based; details: Homo sapiens
[11] = biological target: G-protein coupled receptor 55 (Homo sapiens, UniProt Q9Y2T6); assay: GPR55 antagonists blocking LPI-driven arrestin recruitment, primary screen, imaging, U2OS, beta-arrestin-GFP, LPI agonist (AID 2013); type: functional;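 further: antagonist potency measured as reduced agonist-driven arrestin aggregation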
[12] = tested on: BJ; assay: cytotoxicity toward BJ-TERT-LT-ST fibroblasts, dose response, cell-based, RAS-independent, luminescence (AID 1935); type: functional; details: Homo sapiens;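 further: BJ fibroblasts immortalized with TERT plus LT and ST oncogenes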
[13] = cytotoxicity toward DRD oncogenic fibroblasts, dose response, cell-based, non-viral oncogenic, luminescence (AID 1934); type: functional; details: Homo sapiens
[14] = biological target: Heat shock protein HSP 90-alpha (Homo sapiens, UniProt P07900); type: functional, organism-based
[15] = tested on: BJ; assay: cytotoxicity toward Ras-transformed BJeLR fibroblasts, dose response, cell-based, alamar blue fluorescence, cherrypicked samples (AID 2631); type: functional; details: Homo sapiens;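 further: confirmatory dose-response assay in RAS-dependent BJ fibroblasts engineered with TERT, LT and ST, with cytotoxicity read by fluorescence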
[16] = biological target: NADPH oxidase 1 (Homo sapiens, UniProt Q9Y5S8); type: functional, cell-based;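 further: Cell-based assay with luminescence read-out, IC50 derived from inhibitor dose-response curves; intracellular ROS from endogenous NOX1 in intact HT29 colon cancer cells; potency of inhibitors that lower the ROS luminescence signal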
[17] = biological target: Serine/threonine-protein phosphatase PP1-alpha catalytic subunit (Homo sapiens, UniProt P62136); assay: PP1 phosphatase inhibitors, dose response, biochemical, fluorescence (AID 2394)
[18] = tested on: Streptococcus sp. 'group A'; assay: growth inhibition of control SK(-) GAS strain, dose response, counter-screen for streptokinase expression inhibitor project, luminescence, kanamycin, BacTiterGlo, confirmation (AID 1900); type: functional, organism-based
[19] = biological target: T3, Streptokinase A (Streptococcus pyogenes serotype M1, UniProt P10520); assay: S. pyogenes streptokinase expression inhibitors, potency, dose response, plasminogen activation absorbance, OD405 (AID 1914); type: functional, Streptococcus pyogenes M1 GAS;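 further: secreted streptokinase activity via plasminogen activation per viability signal from cell pellet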
T3 sequence (P10520 whole entry): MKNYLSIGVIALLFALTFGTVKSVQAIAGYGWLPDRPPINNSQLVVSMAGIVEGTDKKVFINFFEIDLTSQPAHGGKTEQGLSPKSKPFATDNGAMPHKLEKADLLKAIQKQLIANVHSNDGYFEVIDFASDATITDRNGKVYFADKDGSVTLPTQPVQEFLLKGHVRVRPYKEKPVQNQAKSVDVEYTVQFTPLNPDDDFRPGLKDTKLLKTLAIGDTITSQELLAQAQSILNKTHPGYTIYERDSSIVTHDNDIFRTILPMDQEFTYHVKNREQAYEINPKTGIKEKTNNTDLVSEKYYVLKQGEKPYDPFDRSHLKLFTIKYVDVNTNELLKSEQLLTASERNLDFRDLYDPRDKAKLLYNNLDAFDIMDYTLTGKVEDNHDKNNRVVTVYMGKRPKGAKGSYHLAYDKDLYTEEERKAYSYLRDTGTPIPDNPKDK

[20] = inhibitors of intracellular T. cruzi replication, confirmation, NIH3T3 host cells, beta-gal luminescence (AID 2044); type: functional, cell-based;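 further: intracellular parasites grown in NIH/3T3 mouse fibroblasts as host cells; luminescent beta-galactosidase reporter signal from transgenic T. cruzi replicating inside host cells; inhibitors lower the luminescence signal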
[21] = biological target: Protein-tyrosine kinase 2-beta (Homo sapiens, UniProt Q14289);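 further: potency of inhibitors of PYK2 kinase phosphorylation of poly-GT substrate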
[22] = biological target: Serine/threonine-protein phosphatase (Homo sapiens, UniProt Q9BPW0); assay: PP5 phosphatase inhibitors, dose response, biochemical, fluorescence (AID 2395)
[23] = cytotoxicity toward NIH3T3 fibroblasts, dose response, counter-screen, cell-based, ATP luminescence, mouse fibroblasts (AID 2010); type: functional;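 further: cells exposed to compound for about 90 hours before reading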
[24] = enhancers of respiration in Yfh1-depleted yeast, dose response, Friedreich's ataxia, plus single-dose screen (AID 1465); type: functional;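 further: yeast depleted of Yfh1p frataxin homolog grown on glycerol needing respiration; WST-1 tetrazolium dye reduction as measure of cellular dehydrogenase metabolic activity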
[25] = tested on: Streptococcus; assay: Group A Streptococcus viability loss, dose response, counter-screen for streptokinase expression inhibitor project, luminescence, BacTiterGlo (AID 1915); type: functional, organism-based;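 further: potency for reduction of bacterial viability or growth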
[26] = biological target: T4, Apoptotic protease-activating factor 1 (Homo sapiens, UniProt O14727); type: functional
T4 sequence (O14727 whole entry): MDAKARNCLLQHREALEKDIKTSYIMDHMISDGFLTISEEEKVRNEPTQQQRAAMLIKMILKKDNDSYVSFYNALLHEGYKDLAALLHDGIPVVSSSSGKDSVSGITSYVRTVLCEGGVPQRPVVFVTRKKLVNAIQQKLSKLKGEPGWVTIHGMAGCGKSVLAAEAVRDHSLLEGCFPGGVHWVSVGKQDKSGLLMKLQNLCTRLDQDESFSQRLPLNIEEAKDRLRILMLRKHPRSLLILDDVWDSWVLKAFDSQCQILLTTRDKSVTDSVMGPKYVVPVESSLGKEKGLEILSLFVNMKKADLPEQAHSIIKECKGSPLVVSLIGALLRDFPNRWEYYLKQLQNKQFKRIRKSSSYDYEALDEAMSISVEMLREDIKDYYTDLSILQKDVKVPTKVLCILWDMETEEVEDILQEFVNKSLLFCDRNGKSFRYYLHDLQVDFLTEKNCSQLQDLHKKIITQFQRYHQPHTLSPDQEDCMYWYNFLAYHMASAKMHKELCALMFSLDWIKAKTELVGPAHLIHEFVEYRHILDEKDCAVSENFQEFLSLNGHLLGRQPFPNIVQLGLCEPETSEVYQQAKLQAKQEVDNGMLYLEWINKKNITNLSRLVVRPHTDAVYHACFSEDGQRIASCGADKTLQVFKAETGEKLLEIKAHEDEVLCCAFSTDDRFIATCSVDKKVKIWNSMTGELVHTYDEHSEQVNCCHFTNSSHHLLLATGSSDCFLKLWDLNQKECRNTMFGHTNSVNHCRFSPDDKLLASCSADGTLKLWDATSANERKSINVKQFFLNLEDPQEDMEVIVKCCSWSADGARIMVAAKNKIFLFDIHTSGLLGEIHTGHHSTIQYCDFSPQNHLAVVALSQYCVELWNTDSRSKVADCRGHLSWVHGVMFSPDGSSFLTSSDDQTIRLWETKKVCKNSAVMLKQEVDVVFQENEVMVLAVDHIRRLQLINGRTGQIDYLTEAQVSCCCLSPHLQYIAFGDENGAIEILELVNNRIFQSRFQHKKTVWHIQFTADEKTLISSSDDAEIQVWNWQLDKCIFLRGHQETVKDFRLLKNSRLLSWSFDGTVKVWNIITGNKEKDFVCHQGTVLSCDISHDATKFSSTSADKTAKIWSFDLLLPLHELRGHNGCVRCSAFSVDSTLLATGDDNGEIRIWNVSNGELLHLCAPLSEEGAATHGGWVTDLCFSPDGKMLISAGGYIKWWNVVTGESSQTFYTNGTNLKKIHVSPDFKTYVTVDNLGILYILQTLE

[27] = tested on: INS1; assay: beta cell apoptosis inhibitors, cytokine rescue, dose response, luminescence, retest (AID 449756); type: functional, cell-based; details: Rattus norvegicus;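 further: cell death triggered by IL-1 beta plus TNF-alpha plus IFN-gamma mixture; protective hits raise ATP signal compared with cytokine alone wells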
[28] = biological target: T5, Estrogen receptor (Homo sapiens, UniProt P03372); assay: potentiators of ERα–SRC-1 coactivator binding, dose response, biochemical, TR-FRET, ERα LBD (AID 737)
T5 sequence (P03372 whole entry): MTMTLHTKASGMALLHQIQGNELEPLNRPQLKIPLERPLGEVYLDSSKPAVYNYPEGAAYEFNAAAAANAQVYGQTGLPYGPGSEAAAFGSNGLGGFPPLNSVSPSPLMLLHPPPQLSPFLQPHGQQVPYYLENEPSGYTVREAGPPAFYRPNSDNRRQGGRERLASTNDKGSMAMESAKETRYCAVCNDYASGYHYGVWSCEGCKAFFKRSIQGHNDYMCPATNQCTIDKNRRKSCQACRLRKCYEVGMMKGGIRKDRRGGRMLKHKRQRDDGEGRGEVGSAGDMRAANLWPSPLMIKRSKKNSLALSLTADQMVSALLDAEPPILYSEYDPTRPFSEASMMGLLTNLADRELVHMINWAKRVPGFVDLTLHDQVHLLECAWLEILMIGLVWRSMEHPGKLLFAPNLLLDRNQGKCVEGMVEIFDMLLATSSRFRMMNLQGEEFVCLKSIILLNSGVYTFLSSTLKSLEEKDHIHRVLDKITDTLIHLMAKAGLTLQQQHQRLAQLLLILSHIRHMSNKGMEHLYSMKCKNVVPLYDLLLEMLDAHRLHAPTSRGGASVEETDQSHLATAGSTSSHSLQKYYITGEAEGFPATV

Protein-tyrosine kinase 2-beta, sequence (Q14289 whole entry): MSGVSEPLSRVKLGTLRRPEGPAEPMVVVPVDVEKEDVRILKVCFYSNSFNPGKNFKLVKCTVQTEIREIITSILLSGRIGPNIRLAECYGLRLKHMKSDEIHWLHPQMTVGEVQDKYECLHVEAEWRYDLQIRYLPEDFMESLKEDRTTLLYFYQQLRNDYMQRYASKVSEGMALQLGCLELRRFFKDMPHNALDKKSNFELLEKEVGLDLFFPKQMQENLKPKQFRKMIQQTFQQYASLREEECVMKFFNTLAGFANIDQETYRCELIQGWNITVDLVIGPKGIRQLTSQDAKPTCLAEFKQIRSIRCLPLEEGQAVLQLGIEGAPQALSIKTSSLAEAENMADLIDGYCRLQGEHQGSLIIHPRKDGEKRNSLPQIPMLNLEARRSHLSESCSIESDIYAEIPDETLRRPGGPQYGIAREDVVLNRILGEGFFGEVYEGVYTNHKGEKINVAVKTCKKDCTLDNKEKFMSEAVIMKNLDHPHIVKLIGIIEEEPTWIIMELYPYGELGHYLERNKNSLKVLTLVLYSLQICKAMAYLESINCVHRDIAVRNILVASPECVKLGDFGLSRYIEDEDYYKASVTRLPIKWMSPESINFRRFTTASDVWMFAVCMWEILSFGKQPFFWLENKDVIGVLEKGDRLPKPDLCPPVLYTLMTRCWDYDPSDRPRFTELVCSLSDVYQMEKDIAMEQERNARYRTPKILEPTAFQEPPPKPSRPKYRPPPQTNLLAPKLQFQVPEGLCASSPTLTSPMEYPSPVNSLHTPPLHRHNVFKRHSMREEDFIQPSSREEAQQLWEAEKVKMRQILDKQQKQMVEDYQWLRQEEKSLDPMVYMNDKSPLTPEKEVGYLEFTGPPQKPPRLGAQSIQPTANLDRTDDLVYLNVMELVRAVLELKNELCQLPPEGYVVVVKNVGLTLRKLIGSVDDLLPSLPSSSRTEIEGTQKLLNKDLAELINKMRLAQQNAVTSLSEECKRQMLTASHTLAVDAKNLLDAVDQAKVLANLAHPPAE
G-protein coupled receptor 55, sequence (Q9Y2T6 whole entry): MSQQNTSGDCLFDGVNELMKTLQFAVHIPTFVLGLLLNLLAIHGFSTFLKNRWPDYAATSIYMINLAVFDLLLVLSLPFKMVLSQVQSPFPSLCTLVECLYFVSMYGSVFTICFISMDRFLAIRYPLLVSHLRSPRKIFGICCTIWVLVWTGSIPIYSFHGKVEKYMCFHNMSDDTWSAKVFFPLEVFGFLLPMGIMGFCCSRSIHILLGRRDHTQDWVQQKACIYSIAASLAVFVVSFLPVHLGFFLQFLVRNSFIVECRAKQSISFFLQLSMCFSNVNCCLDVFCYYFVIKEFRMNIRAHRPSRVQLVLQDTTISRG
Serine/threonine-protein phosphatase, sequence (Q9BPW0 whole entry): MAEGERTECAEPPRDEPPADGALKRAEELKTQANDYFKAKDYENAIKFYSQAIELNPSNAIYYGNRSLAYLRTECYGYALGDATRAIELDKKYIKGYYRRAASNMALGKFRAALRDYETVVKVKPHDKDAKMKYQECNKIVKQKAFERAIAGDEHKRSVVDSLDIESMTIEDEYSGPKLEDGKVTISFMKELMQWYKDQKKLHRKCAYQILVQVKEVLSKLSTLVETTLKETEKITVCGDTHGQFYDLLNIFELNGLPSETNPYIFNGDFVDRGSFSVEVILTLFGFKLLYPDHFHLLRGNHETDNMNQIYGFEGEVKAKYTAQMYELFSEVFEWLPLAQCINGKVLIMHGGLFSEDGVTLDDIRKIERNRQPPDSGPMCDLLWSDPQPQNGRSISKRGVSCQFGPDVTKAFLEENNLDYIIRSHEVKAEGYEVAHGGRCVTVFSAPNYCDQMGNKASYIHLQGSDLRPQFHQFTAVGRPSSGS
Procathepsin L, sequence (P07711 whole entry): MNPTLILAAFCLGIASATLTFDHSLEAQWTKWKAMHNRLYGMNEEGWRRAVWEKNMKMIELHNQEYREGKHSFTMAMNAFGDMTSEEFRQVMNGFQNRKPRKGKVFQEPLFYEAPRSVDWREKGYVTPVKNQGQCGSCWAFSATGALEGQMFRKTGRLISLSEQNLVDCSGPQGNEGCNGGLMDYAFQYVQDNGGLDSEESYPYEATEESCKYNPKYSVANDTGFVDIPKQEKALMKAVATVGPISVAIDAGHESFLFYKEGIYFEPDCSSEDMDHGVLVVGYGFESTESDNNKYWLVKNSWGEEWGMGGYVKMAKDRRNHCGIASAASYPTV
NADPH oxidase 1, sequence (Q9Y5S8 whole entry): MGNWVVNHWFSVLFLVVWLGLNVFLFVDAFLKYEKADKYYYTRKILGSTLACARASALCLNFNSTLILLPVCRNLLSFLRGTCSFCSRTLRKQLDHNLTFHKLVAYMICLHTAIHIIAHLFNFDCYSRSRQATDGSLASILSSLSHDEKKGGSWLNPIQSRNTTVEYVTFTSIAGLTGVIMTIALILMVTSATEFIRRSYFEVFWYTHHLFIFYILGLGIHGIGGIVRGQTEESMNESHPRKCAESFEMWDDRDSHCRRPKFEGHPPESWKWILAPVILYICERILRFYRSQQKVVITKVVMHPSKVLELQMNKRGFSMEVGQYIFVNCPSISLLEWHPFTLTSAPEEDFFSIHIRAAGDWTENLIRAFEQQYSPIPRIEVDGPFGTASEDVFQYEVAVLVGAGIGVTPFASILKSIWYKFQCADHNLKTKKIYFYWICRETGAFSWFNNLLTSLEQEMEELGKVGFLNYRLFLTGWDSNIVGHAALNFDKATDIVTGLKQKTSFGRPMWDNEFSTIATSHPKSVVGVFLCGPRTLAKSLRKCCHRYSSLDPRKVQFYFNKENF
Serine/threonine-protein phosphatase PP1-alpha catalytic subunit, sequence (P62136 whole entry): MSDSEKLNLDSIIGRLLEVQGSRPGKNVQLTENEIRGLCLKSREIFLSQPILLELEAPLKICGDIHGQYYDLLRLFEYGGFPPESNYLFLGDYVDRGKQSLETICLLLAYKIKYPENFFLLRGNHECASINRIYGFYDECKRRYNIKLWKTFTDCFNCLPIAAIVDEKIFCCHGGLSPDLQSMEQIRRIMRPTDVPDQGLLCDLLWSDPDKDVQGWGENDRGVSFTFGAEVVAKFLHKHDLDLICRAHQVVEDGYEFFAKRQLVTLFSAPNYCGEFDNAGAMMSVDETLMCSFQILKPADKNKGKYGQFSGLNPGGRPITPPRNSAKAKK

Cc1ccc(NC(=O)CSc2nnc(C)c(=O)[nH]2)cc1C
IC50 [1]: 3.51 µM (active) | IC50 [2]: > 73.5 µM (not active) | IC50 [3]: > 59.6 µM (not active)

O=C(Oc1ccc2ccc(O)cc2c1)C1CCCCC1
IC50 [4]: > 100 µM (active)

CCOC(=O)/C(=C\c1cccnc1)C(=O)c1cc(C(C)=O)c(Nc2ccccc2)s1
EC50 [5]: > 120 µM (not active) | CC50 [6]: 2.91 µM (active) | EC50 [7]: 2.38 µM (inconclusive) | EC50 [8]: 8.03 µM (active) | EC50 [9]: 8.02 µM (active) | EC50 [10]: 7.78 µM (inconclusive) | IC50 [11]: 3.09 µM (active) | EC50 [12]: 6.68 µM (inconclusive) | EC50 [13]: 2.34 µM (active) | AC50 [14]: 2.18 µM (active) | EC50 [15]: 0.503 µM (active)

O=C(Oc1ccccc1[N+](=O)[O-])c1sc2ccccc2c1Cl
IC50 [16]: > 17 µM (not active)

Cc1ccc(Cl)cc1NC1=C/C(=N\S(=O)(=O)c2cccs2)c2ccccc2C1=O
IC50 [17]: 38.9 µM (not active) | EC50 [18]: 0.427 µM (active) | EC50 [19]: > 150 µM (not active) | EC50 [20]: 1.6 µM (active) | IC50 [21]: > 69.5 µM (not active) | IC50 [22]: 2.49 µM (active) | EC50 [23]: 3.19 µM (active) | EC50 [24]: > 100 µM (active) | EC50 [25]: 2.98 µM (active) | IC50 [26]: 1.85 µM (active) | AC50 [27]: 0.608 µM (active)

Cc1cc(-c2nnc3sc(-c4ccc(Cl)cc4Cl)nn23)n[nH]1
EC50 [28]: 15.4 µM (active)
